Results on two molecules are retold here after patent US6444617B1, “Fused-heterocycle dicarboxylic acid diamide derivatives or salts thereof, herbicide and usage thereof” (Nihon Nohyaku Co., Ltd., priority 1998, dated 2002).

Assay type in all cases: in vivo
Data set [1] concerns forxtail grass (Alopecurus aequalis var. amurensis Ohwi), Am. The experiment in a line: Test Example 4: herbicidal effect on upland weeds after emergence. The note with it: dosage 5 kg/ha; sprayed after emergence; judged 14 days after treatment. In outline: (§1)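 Scores of weed-killing rate, with crop phytotoxicity, come from inspection 14 days after plants in soil vats, grown to specified leaf stages, are sprayed with a formulation holding the compound at a prescribed concentration.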

For data set [2], the system named is velvetleaf (Abutilon theophtasti L.), At. Described as above. The note with it: dosage 5 kg/ha; sprayed after emergence; judged 14 days after treatment. In outline: as §1
Data set [3] deals with bird's eye speedwell (Veronica persica Poir.), Vp. Described as above. The note with it: dosage 5 kg/ha; sprayed after emergence; judged 14 days after treatment. The method, boiled down:
as §1

The subject of data set [4] is barnyard grass (Echinochloa crus-galli Beauv.), Ec. Described as above. The note with it: dosage 5 kg/ha; sprayed after emergence; judged 14 days after treatment. In outline: as §1
Data set [5] relates to cleavers (Galium aparine L.), Ga. Described as above. The note with it: dosage 5 kg/ha; sprayed after emergence; judged 14 days after treatment. In outline:
as §1

Data set [6] has as its system cocklebur (Xanthium strumarium L.), Xs. The description is as above. The settings on record: dosage 5 kg/ha; sprayed after emergence; judged 14 days after treatment. In outline: as §1
The subject of data set [7] is barnyard grass (Echinochloa crus-galli Beauv.). Briefly: Test Example 1: herbicidal effect on paddy field weeds before emergence. The note with it: Dosage 5 kg/ha. The method, boiled down: (§2)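 Seeds of both weeds, still ungerminated, in soil pots held under paddy conditions received a set dose of test solution as soil treatment. After twenty-one days, control relative to untreated pots was calculated and rated on a scoring scale.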

Data set [8] has as its system bulrush (Scirpus juncoides Roxb.). The description is as above. The settings on record: Dosage 5 kg/ha. The method, boiled down: as §2
The next data set deals with soybean plant (So). Briefly: Test Example 3: phytotoxicity to upland crop plants, treatment before emergence. The note with it: dosage 5 kg/ha. The method, boiled down: (§3)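 Compound formulated as a liquid agent at a prescribed concentration is sprayed before crop emergence. After fourteen days, damage to soybean and wheat is examined and rated by a judgment criterion.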

The test system of another data set is wheat (Wh). Described as above. The settings on record: dosage 5 kg/ha. The method, boiled down:
as §3

Data set [9] deals with forxtail grass (Alopecurus aequalis var. amurensis Ohwi), Am. The experiment in a line: Test Example 3: herbicidal effect on upland weeds before emergence. The note with it: foxtail grass, dosage 5 kg/ha. The method, boiled down:
(§4)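 Test compound, formulated as a liquid at a fixed concentration, is sprayed before weed emergence. Two weeks later, kill rate is derived and herbicidal activity is rated.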

In data set [10] the test system is velvetleaf (Abutilon theophtasti L.), At. The description is as above. The note with it: dosage 5 kg/ha. In outline: as §4
In data set [11] the test system is bird's eye speedwell (Veronica persica Poir.), Vp. The description is as above. The note with it: dosage 5 kg/ha. In outline:
as §4

Data set [12] concerns barnyard grass (Echinochloa crus-galli Beauv.), Ec. The data set is described as above. The settings on record: dosage 5 kg/ha. The method, boiled down:
as §4

Data set [13] concerns cleavers (Galium aparine L.), Ga. Described as above. The note with it: dosage 5 kg/ha. In outline: as §4
In data set [14] the test system is cocklebur (Xanthium strumarium L.), Xs. The description is as above. The settings on record: dosage 5 kg/ha. In outline: as §4
For another data set, the system named is wheat. Briefly: Test Example 4: phytotoxicity to upland crop plants, treatment after emergence. The settings on record: dosage 5 kg/ha, sprayed after emergence, judged 14 days after treatment. In outline:
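Seeds sown in soil and covered. Plants raised to specified leaf stages. Agent with test compound at a prescribed concentration sprayed. Herbicidal effect and crop damage scored after 14 days as weed-killing rate.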

The subject of a further data set is soybean plant. Described as above. The settings on record: dosage 5 kg/ha, sprayed after emergence, judged 14 days after treatment. The method, boiled down: as §1
Data set [15] concerns monochoria (Monochoria vaginalis Presl). Briefly: Test Example 2: herbicidal effect on paddy field weeds after emergence. The note with it: Dosage 5 kg/ha; one-leaved stage; 21 days after treatment. The method, boiled down:
(§5)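 Weeds were sown in 1/10000 are pots of soil flooded to paddy conditions and grown to the one-leaf stage, then the soil was treated with a solution of compound at a predetermined dosage.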

Data set [16] concerns barnyard grass (Echinochloa crus-galli Beauv.). The data set is described as above. The note with it: Dosage 5 kg/ha; one-leaved stage; 21 days after treatment. In outline:
as §5

Data set [17] deals with bulrush (Scirpus juncoides Roxb.). Described as above. The note with it: Dosage 5 kg/ha; one-leaved stage; 21 days after treatment. In outline: as §5

The structures appear in SMILES notation.

With `CCCNC(=O)c1nc2ccn(OC)c2cc1C(=O)Nc1c(CC)ccc(Cl)c1CC` [compound 895], the “Herbicidal effect Am” value in data set [1] and in data set [9] was 5 (Weed-killing rate is 100%.) in each case. Moreover, the “Herbicidal effect At” value in [2] and in data set [10] was 5 (Weed-killing rate is 100%.) throughout. Besides, the “Herbicidal effect Vp” value in [3] and in data set [11] was 5 (Weed-killing rate is 100%.) throughout. Also, the “Herbicidal effect Ec” value in data set [4] and in data set [12] was 5 (Weed-killing rate is 100%.) throughout. Moreover, the “Herbicidal effect Ga” value in [5] and in [13] was 5 (Weed-killing rate is 100%.) throughout. Besides, the “Herbicidal effect Xs” value in data set [6] and in data set [14] was 5 (Weed-killing rate is 100%.) in each case. Also, the “Pre-emergence treatment Barnyard grass (herbicidal effect)” value in data set [7] is recorded as 5 (Weed-killing rate is 100%.). Further, in data set [8], the “Pre-emergence treatment Bulrush (herbicidal effect)” value is reported as 5 (Weed-killing rate is 100%.). Also, the “Phytotoxicity So” value in the data set with soybean plant (So) and in the data set with soybean plant was 4 (Crop-killing rate is 90-99%.) throughout. Besides, the “Phytotoxicity Wh” value with wheat (Wh) and with wheat was 5 (Crop-killing rate is 100%.) in each case. Besides, the “Post-emergence treatment Monochoria (herbicidal effect)” value in data set [15] is recorded as 5 (Weed-killing rate is 100%.). For the same molecule, the “Post-emergence treatment Barnyard grass (herbicidal effect)” value in data set [16] is 5 (Weed-killing rate is 100%.). Also, the “Post-emergence treatment Bulrush (herbicidal effect)” value in data set [17] is given as 5 (Weed-killing rate is 100%.).

On to `CCCNC(=O)c1nc2ccn(C)c2cc1C(=O)Nc1c(CC)ccc(Cl)c1CC` [compound 907], for which the “Herbicidal effect Am” value in [1] and in [9] was 5 (Weed-killing rate is 100%.) throughout. Further, the “Herbicidal effect At” value in data set [2] and in [10] was 5 (Weed-killing rate is 100%.) each time. Further, the “Herbicidal effect Vp” value in [3] and in data set [11] was 5 (Weed-killing rate is 100%.) throughout. In addition, the “Herbicidal effect Ec” value in data set [4] and in data set [12] was 5 (Weed-killing rate is 100%.) each time. Moreover, the “Herbicidal effect Ga” value in data set [5] and in [13] was 5 (Weed-killing rate is 100%.) each time. For the same molecule, the “Herbicidal effect Xs” value in [6] and in data set [14] was 5 (Weed-killing rate is 100%.) each time. For the same molecule, the “Pre-emergence treatment Barnyard grass (herbicidal effect)” value in [7] was 5 (Weed-killing rate is 100%.). Also, the “Pre-emergence treatment Bulrush (herbicidal effect)” value in data set [8] is 5 (Weed-killing rate is 100%.). Further, the “Phytotoxicity So” value with soybean plant (So) and in the data set on soybean plant was 4 (Crop-killing rate is 90-99%.) throughout. The “Phytotoxicity Wh” value in the data set on wheat (Wh) and with wheat was 5 (Crop-killing rate is 100%.) throughout. Further, the “Post-emergence treatment Monochoria (herbicidal effect)” value in data set [15] is 5 (Weed-killing rate is 100%.). For the same molecule, the “Post-emergence treatment Barnyard grass (herbicidal effect)” value in data set [16] is on record as 5 (Weed-killing rate is 100%.). Besides, the “Post-emergence treatment Bulrush (herbicidal effect)” value in data set [17] is given as 5 (Weed-killing rate is 100%.).
